Measurements published in patent publication US7741337B2, “Azonafide derivatives, methods for their production and pharmaceutical compositions therefrom” (Unibioscreen S.A., priority 2005, dated 2010).
Where a name gives a salt, the structure may show the parent alone. Read-outs that look alike come from different tables or passages of the source.

Columns and labels:
[1] = tested on: human cancer cell lines Hs683, U-373MG, HCT-15, LoVo, A549 and MCF-7; test: MTT test, effect on overall cell growth (mean of six cell lines, examples 3 to 26); format: cell-based; conditions: mean of six cell lines Hs683, U-373MG, A549, MCF-7, 72 hours incubation, range of molar concentrations resulting in 50% inhibition of overall tumor cells growth
Method: (§1) MTT tests were performed in order to rapidly, i.e. within 5 days, measure the effect of azonafide derivatives of this invention on the overall cell growth. The test measures the number of metabolically active living cells that are able to transform the yellow product 3-(4,5-dimethylthiazol-2-yl)-2,5-diphenyl tetrazolium bromide (herein referred as MTT) into the blue product formazan dye by mitochondrial reduction. The amount of formazan obtained at the end of the experiment, measured by means of a spectrophotometer, is directly proportional to the number of living cells. Optical density determination thus enables a quantitative measurement of the effect of the investigated compounds as compared to the control condition (untreated cells) and/or to other reference compounds.
(§2) Height human cancer cell lines described in table 1 were used in the following MTT tests. These cell lines cover six histological cancer types, being prostate, glioma, pancreas, colon, lung and breast cancers. Cells were allowed to grow in 96-well micro-wells with a flat bottom with an amount of 100 μl of cell suspension per well with 1,000 to 4,000 cells/well depending on the cell type used. Each cell line was seeded in a well known MEM 5% serum culture medium.
(§3) The detailed experimental procedure was as following: after a 24-hour period of incubation at 37° C., the culture medium was replaced by 100 μl of fresh medium in which the compound to be tested was dissolved at the following molar concentrations: 10^−9 M, 5.10^−9 M, 10^−8 M, 5.10^−8 M, 10^−7 M, 5.10^−7 M, 10^−6 M, 5.10^−6 M and 10^−5 M. Each experiment was repeated 6 times.
(§4) After 72 hours of incubation at 37° C. with (experimental conditions) or without (control condition) the compound to be tested, the medium was replaced by 100 μl MTT dissolved in RPMI at a concentration of 1 mg/ml. The micro-wells were subsequently incubated during 3 hours at 37° C. and centrifuged at 400 g during 10 minutes. MTT was removed and formazan crystals formed were dissolved in 100 μl DMSO. The micro-wells were shaken for 5 minutes and read on a spectrophotometer at wavelengths of 570 nm (maximum formazan absorbance) and 630 nm (back-ground noise).
(§5) For each experimental condition, the mean optical density was calculated, as well as the percentage of remaining living cells in comparison with the control.
(§6) IC50 values for compounds of examples 3 to 26 were obtained on cell lines Hs683, U-373MG, HCT-15, LoVo, A549 and MCF-7 described in Table 1. IC50 values for compounds from examples 27 to 45 were obtained on cell lines PC3, U-373MG, BxPC3, LoVo, A549 and MCF-7 described in Table 1.

[2] = tested on: U-373 MG (Glioma cancer) cells; test: Effect on cell migration, U-373MG; format: cell-based; conditions: Homo sapiens, U373 MG, p value in same cell, read-out: Maximum effects (cell migration); for Emax at 0.1 µM: at 10^−7 M; for Emax at 1 µM: at 10^−6 M
Method: (§7) Cells of different cancer lines, i.e. U-373 MG (Glioma cancer), PC3 (prostate cancer and A549 (Lung cancer) were seeded on culture flask 48 hours before the migration experiment. On the test day, cells were treated with or without the azonafide derivatives mentioned in table 3 in closed Falcon dishes containing a buffered medium at a controlled temperature (37.0±0.1° C.) for 12 or 22 hours, as noted in the right column of table 3. The azonafide derivatives were used at three non-cytotoxic concentrations (10^−6 M, 10^−7, 10^−8 M). Migration of the cells was observed by means of a CCD-camera mounted on a phase-contrast microscope. Statistical analysis of the migration, with the non-parametric Mann-Whitney test, was established for 25% and 50% of the most motile cells and for the entire cell population.

[3] = tested on: A549 (Lung cancer) cells; test: Effect on cell migration, A549; format: cell-based; conditions: Homo sapiens, p value in same cell, read-out: Maximum effects (cell migration); for Emax at 1 µM: at 10^−6 M
Method: as §7

[4] = tested on: U-373 MG, PC-3 and/or A549 cancer cells; test: Effect on cell migration, summary of table 3; format: cell-based, human; conditions: for migration level of cancer cells: U-373 MG, PC-3 and/or A549 cancer cells at the non-cytotoxic concentrations of this study; for cell migration activity compared with the closest compounds known in the art: comparison drawn from table 3
Method: as §7

[5] = tested on: human cancer cell lines PC3, U-373MG, BxPC3, LoVo, A549 and MCF-7; test: MTT test, effect on overall cell growth (mean of six cell lines, examples 27 to 45); format: cell-based; conditions: mean of six cell lines PC3, U-373MG, A549, MCF-7, 72 hours incubation, range of molar concentrations resulting in 50% inhibition of overall tumor cells growth
Method: as §1, §2, §3, §4, §5, §6

[6] = 22 hours on the 25% of most motile cells

| Compound | IC50 [1] [µM] | migration level of cancer cells [4] | cell migration activity compared with the closest compounds known in the art [4] | Emax at 1 µM [3, 6] [%] | also measured |
| --- | --- | --- | --- | --- | --- |
| CN(C)CCN1C(=O)c2cccc3cc4c(NC(=O)Nc5ccc6c(c5)OCO6)cccc4c(c23)C1=O [Example 15, 1-(1,3-benzodioxol-5-yl)-3-{2-[2-(dimethylamino)ethyl]-1,3-dioxo-2,3-dihydro-1H-dibenzo[de,h]isoquinolin-8-yl}urea hydrochloride] | – | – | significantly greater cell migration activity than the closest compounds known in the art, or similar cell migration activity at significantly lower concentrations | – | Emax at 1 µM [2, 6]: -51% |
| CC(C)COC(=O)Nc1cccc2cc3cccc4c3c(c12)C(=O)N(CCN(C)C)C4=O [Example 27, isobutyl {2-[2-(dimethylamino)ethyl]-1,3-dioxo-2,3-dihydro-1H-dibenzo[de,h]isoquinolin-11-yl}carbamate] | – | induced a decrease in the migration level | – | -28 | IC50 [5]: > 10 µM |
| CN(C)CCN1C(=O)c2cccc3cc4cccc(NC(=O)Oc5ccc(F)cc5)c4c(c23)C1=O [Example 24, 4-fluorophenyl {2-[2-(dimethylamino)ethyl]-1,3-dioxo-2,3-dihydro-1H-dibenzo[de,h]isoquinolin-11-yl}carbamate] | > 10 | induced a decrease in the migration level | significantly greater cell migration activity than the closest compounds known in the art, or similar cell migration activity at significantly lower concentrations | – | Emax at 0.01 µM ([3]; 22 hours on the 25% of most motile cells, at 10^−8 M): -31% |
| CN(C)CCN1C(=O)c2cccc3cc4cccc(N)c4c(c23)C1=O [Example 3, 11-amino-2-[2-(dimethylamino)ethyl]-1H-dibenzo[de,h]isoquinoline-1,3(2H)-dione, reference compound] | 5 to 10 | – | – | – | Emax at 1 µM [2, 6]: -31% |
| COC(=O)Nc1cccc2cc3cccc4c3c(c12)C(=O)N(CCN(C)C)C4=O [Example 9, methyl {2-[2-(dimethylamino)ethyl]-1,3-dioxo-2,3-dihydro-1H-dibenzo[de,h]isoquinolin-11-yl}carbamate] | 5 to 10 | induced a decrease in the migration level | significantly greater cell migration activity than the closest compounds known in the art, or similar cell migration activity at significantly lower concentrations | -28 | Emax at 0.1 µM ([2]; 12 and 22 hours on the 25% of most motile cells): -31%; Emax at 1 µM ([3]; 12 hours on the 25% of most motile cells): -40% |

Continued, in another order:

| IC50 [1] [µM] | Compound | migration level of cancer cells [4] | cell migration activity compared with the closest compounds known in the art [4] | Emax at 1 µM [3, 6] [%] | also measured |
| --- | --- | --- | --- | --- | --- |
| > 10 | CCOC(=O)Nc1cccc2cc3cccc4c3c(c12)C(=O)N(CCN(C)C)C4=O [Example 17, ethyl {2-[2-(dimethylamino)ethyl]-1,3-dioxo-2,3-dihydro-1H-dibenzo[de,h]isoquinolin-11-yl}carbamate] | induced a decrease in the migration level | significantly greater cell migration activity than the closest compounds known in the art, or similar cell migration activity at significantly lower concentrations | – | Emax at 0.1 µM [2, 6]: -42%; Emax at 0.1 µM ([3]; 22 hours on the 25% of most motile cells, at 10^−7 M): -44% |
| 1 to 5 | CN(C)CCN1C(=O)c2cccc3cc4cccc(NC(=O)CCCCl)c4c(c23)C1=O [Example 10, 4-chloro-N-{2-[2-(dimethylamino)ethyl]-1,3-dioxo-2,3-dihydro-1H-dibenzo[de,h]isoquinolin-11-yl}butanamide] | induced a decrease in the migration level | – | -24 | – |
| 5 to 10 | CN(C)CCN1C(=O)c2cccc3cc4cccc(NC(=O)Nc5ccc6c(c5)OCO6)c4c(c23)C1=O [Example 12, 1-(1,3-benzodioxol-5-yl)-3-{2-[2-(dimethylamino)ethyl]-1,3-dioxo-2,3-dihydro-1H-dibenzo[de,h]isoquinolin-11-yl}urea] | induced a decrease in the migration level | – | – | Emax at 0.1 µM [2, 6]: -20% |
